Data published in PMC6856039 (Investigational New Drugs, 2019).
Entries after “also recorded” stand apart in the source; their conditions may differ.

System: Japanese patients with advanced EGFR mutation-positive NSCLC
Assay: Phase I study: dose-limiting toxicities, adverse drug reactions, tolerability
Type: in vivo, human
Conditions: for patients who presented a DLT: Cycle 1 of dose escalation phase; for maximum tolerated dose (MTD): dose escalation phase
Procedure: This was an open-label, non-randomized, dose escalation phase I study conducted between December 14, 2015 and July 7, 2016 at 12 centers in Japan. The study was conducted in three phases (dose escalation phase, expansion phase, and extension phase), and the design is shown in Supplementary Fig. 1 (Online Resource 1). […] In patients who received the BID regimen, the administration interval was ≥10 h.
The first phase was the dose escalation phase conducted according to a 3 + 3 design, with a minimum of three patients treated at each dose level. […] The dosing rationale was derived from a 4-weeks repeated oral-dose toxicology study in monkeys. […] If none of the initial three patients treated within a dose level experienced a dose-limiting toxicity (DLT) during Cycle 1, the dose was escalated to the next level. […] If none of the three additional patients experienced DLTs after all of them completed Cycle 1, the dose was escalated to the next level. If at least one of the additional three patients developed a DLT, then the dose escalation was stopped and at least six evaluable patients were enrolled at the previous dose level to establish the maximum tolerated dose (MTD). The maximum dose level was defined as Dose Level 9 (150 mg/day). Based on safety and PK results, the dosing schedule could be changed to a BID regimen.
AEs were evaluated and graded according to the National Cancer Institute Common Terminology Criteria for Adverse Events Version 4.03. DLTs were also evaluated and defined as hematologic toxicity (Grade 4 neutropenia lasting >7 days, Grade 4 thrombocytopenia or Grade 3 thrombocytopenia associated with bleeding and requiring blood transfusion, or febrile neutropenia) or non-hematologic toxicity (Grade ≥3 nausea/vomiting uncontrolled by aggressive antiemetic treatment, Grade ≥3 diarrhea lasting >48 h and unresponsive to treatment, Grade ≥3 aspartate aminotransferase/alanine aminotransferase lasting >7 days, corneal disorder worsening by ≥1 grade, or Grade ≥3 other non-hematological toxicity).

## C=CC(=O)N[C@H]1CCc2c(-c3cnc4ccccc4c3)c3c(N)ncnc3n2C1 [TAS-121]
12 mg/day BID, N = 5
  Urticaria, ≥G3: 0 n
  Venous thromboembolism, any grade: 0 n
  Venous thromboembolism, ≥G3: 0 n
  Vomiting, ≥G3: 0 n
  WBC decreased, any grade: 0 n
  WBC decreased, ≥G3: 0 n
12 mg/day QD, N = 3
  ALT increased, ≥G3: 0 n
  AST increased, ≥G3: 0 n
  Decreased appetite, ≥G3: 0 n
  Diarrhea, ≥G3: 0 n
  Dry skin, ≥G3: 0 n
  Embolic and thrombotic events, any grade: 2 n
  Hemoglobin decreased, any grade: 0 n
  Hemoglobin decreased, ≥G3: 0 n
  Hypoalbuminemia, any grade: 0 n
  Hypoalbuminemia, ≥G3: 0 n
  Interstitial lung disease, any grade: 0 n
  Interstitial lung disease, ≥G3: 0 n
  Malaise, ≥G3: 0 n
  Nausea, any grade: 2 n
  Nausea, ≥G3: 0 n
  Other embolic and thrombotic events, any grade: 2 n
  Other embolic and thrombotic events, ≥G3: 0 n
  Platelet count decreased, any grade: 2 n
  Pruritus, any grade: 0 n
  Pruritus, ≥G3: 0 n
  Pyrexia, ≥G3: 0 n
  Rash maculo-papular, any grade: 1 n
  Rash maculo-papular, ≥G3: 0 n
  Rash, any grade: 0 n
  Rash, ≥G3: 0 n
  Stomatitis, ≥G3: 0 n
  Urticaria, any grade: 2 n
  Urticaria, ≥G3: 1 n
  Vomiting, ≥G3: 0 n
  WBC decreased, any grade: 0 n
  WBC decreased, ≥G3: 0 n
16 mg/day QD, N = 3
  ALT increased, any grade: 0 n
  ALT increased, ≥G3: 0 n
  AST increased, any grade: 0 n
  AST increased, ≥G3: 0 n
  Decreased appetite, ≥G3: 0 n
  Diarrhea, any grade: 2 n
  Diarrhea, ≥G3: 1 n
  Dry skin, any grade: 0 n
  Dry skin, ≥G3: 0 n
  Embolic and thrombotic events, any grade: 1 n
  Hemoglobin decreased, any grade: 1 n
  Hemoglobin decreased, ≥G3: 0 n
  Hypoalbuminemia, any grade: 0 n
  Hypoalbuminemia, ≥G3: 0 n
  Interstitial lung disease, ≥G3: 1 n
  Malaise, any grade: 0 n
  Malaise, ≥G3: 0 n
  Nausea, any grade: 1 n
  Nausea, ≥G3: 0 n
  Other embolic and thrombotic events, any grade: 0 n
  Other embolic and thrombotic events, ≥G3: 0 n
  Pruritus, ≥G3: 0 n
  Pyrexia, ≥G3: 0 n
  Rash maculo-papular, any grade: 1 n
  Rash maculo-papular, ≥G3: 0 n
  Rash, any grade: 0 n
  Rash, ≥G3: 0 n
  Stomatitis, ≥G3: 0 n
  Urticaria, any grade: 1 n
  Urticaria, ≥G3: 1 n
  Vomiting, ≥G3: 0 n
  WBC decreased, any grade: 2 n
  WBC decreased, ≥G3: 0 n
BID 8 mg/day
  DLT: Interstitial lung disease^a
BID 8 mg/day, 6 DLT evaluable patients
  Number of patients who experienced a DLT: 1
BID 12 mg/day
  DLT: Interstitial lung disease^a; also recorded: Platelet count decreased; also recorded: Left ventricular failure
BID 12 mg/day, 5 DLT evaluable patients
  Number of patients who experienced a DLT: 2
BID regimen
  patients who presented a DLT: three
  maximum tolerated dose (MTD): 8 mg/day
QD 4 mg/day, 3 DLT evaluable patients
  Number of patients who experienced a DLT: 0
QD 8 mg/day, 6 DLT evaluable patients
  Number of patients who experienced a DLT: 0
QD 10 mg/day
  DLT: Drug-induced liver injury
QD 10 mg/day, 6 DLT evaluable patients
  Number of patients who experienced a DLT: 1
QD 12 mg/day
  DLT: Platelet count decreased; also recorded: Urticaria
QD 12 mg/day, 3 DLT evaluable patients
  Number of patients who experienced a DLT: 2
QD 16 mg/day
  DLT: Urticaria; also recorded: Interstitial lung disease^a
QD 16 mg/day, 3 DLT evaluable patients
  Number of patients who experienced a DLT: 2
QD regimen
  patients who presented a DLT: Five
  maximum tolerated dose (MTD): 10 mg/day
Total, N = 134
  AST increased, ≥G3: 0 n
  Decreased appetite, ≥G3: 0 n
  Dry skin, ≥G3: 0 n
  Hypoalbuminemia, ≥G3: 0 n
  Malaise, ≥G3: 0 n
  Nausea, ≥G3: 0 n
  Pruritus, ≥G3: 0 n
  Stomatitis, ≥G3: 0 n
  WBC decreased, ≥G3: 0 n
All patients, during the study
  treatment-related deaths: No treatment-related deaths
